The text below walks through data of patent EP2282358A1, “Host material for light-emitting devices” (Solvay SA, priority 2009, dated 2011).

Like-named read-outs stand apart in the source and are kept apart here.

The nature of data set [1]: HOMO and LUMO measurement (cyclic voltammetry and optical energy gap). The data set is classed as physicochemical. Conditions: for HOMO: estimated from the LUMO level and the optical energy gap (UV-visible absorption onset); for LUMO: from peak potential of 1st reduction wave, cyclic voltammetry in anhydrous tetrahydrofuran, ferrocene internal standard. The protocol:
The LUMO (lowest unoccupied molecular orbital) levels are estimated from cyclic voltammetry. Voltammetric measurements are performed using a PC-controlled Autolab PGSTAT128N electrochemical workstation coupled with a 663 VA Stand measure unit. Cyclic voltammograms are recorded at room temperature under an argon atmosphere in anhydrous tetrahydrofuran using 0.1 M tetrabutylammonium hexafluorophosphate (Fluka electrochemical grade) as supporting electrolyte. The working electrode is a glassy carbon disk and the counter electrode is a platinum wire or a glassy carbon rod. A silver/silver chloride electrode filled with a methanolic saturated KCl solution or a platinum wire pseudo-reference has been used as reference electrode. The sample solutions (0.5 mM) are outgassed with argon for 10 minutes before measurement. Measurements are performed with a sweep rate fixed to 0.1 V/s. Ferrocene is used as internal standard.
The LUMO level is estimated from the peak potential of the 1st observed reduction wave (E1 reduct.) using the following equation: ELUMO -(-4.8) = -[E1 reduct-EOX ½(Fc/(Fc)^+)] [formula] where EHOMO (ferrocene) has been taken equal to -4.8 eV below the vacuum level and EOX ½ (Fc/Fc^+) corresponds to the half-wave oxidation potential of the ferrocene internal standard.
The HOMO level could not be estimated directly from CV measurements because the 1st oxidation wave lies beyond the stability window of the two tested solvents (tetrahydrofuran and dichloromethane). The HOMO level is thus estimated from the LUMO level and optical energy gap (Eopt g): EHOMO = ELUMO -Eopt g , [formula] the optical energy gap being determined from the absorption onset in the UV-visible absorption spectrum.

The nature of data set [2]: Solubility tests in organic solvents. To be noted: for solubilities toward chlorobenzene and toluene: result in words. The data set is classed as physicochemical.

For the compound `CC(C)(C)c1ccc(-c2nnc(-c3cc(-c4nnc(-c5ccc(C(C)(C)C)cc5)o4)cc(C(F)(F)C(F)(F)C(F)(F)C(F)(F)C(F)(F)C(F)(F)F)c3)o2)cc1` [Formula C6F13-OXD7], in data set [1], the HOMO was -6.1 eV and the LUMO is -2.5 eV. Further, in data set [2], the “solubilities toward chlorobenzene and toluene” value is “good solubilities”. For the same compound, the Solubility in chlorobenzene in data set [2] (solvent chlorobenzene) was more than 4.5 wt%. Moreover, in data set [2] (solvent toluene), the Solubility in toluene was found to be 2.5 wt%.
`CC(C)(C)c1ccc(-c2nnc(-c3cccc(-c4nnc(-c5ccc(C(C)(C)C)cc5)o4)c3)o2)cc1` [OXD7, reference compound]: in data set [1], the HOMO is given as -6.0 eV and the LUMO is on record as -2.3 eV. In data set [2], the Solubility in chlorobenzene is less than 1.5 wt%, the Solubility in toluene entry is recorded as “Not soluble” and the “solubility for most organic solvents” value is recorded as “lacks solubility”.
Consider `CC(C)(C)c1ccc(-c2nnc(-c3cc(-c4nnc(-c5ccc(C(C)(C)C)cc5)o4)cc(C(C)(C)C)c3)o2)cc1` [tBu-OXD7], for which, in data set [1], the HOMO is on record as -6.0 eV and the LUMO is -2.3 eV. The “solubilities toward chlorobenzene and toluene” value in data set [2] is “good solubilities”. In data set [2] (solvent chlorobenzene), the Solubility in chlorobenzene is more than 7.2 wt%. Besides, in data set [2] (solvent toluene), the Solubility in toluene is on record as more than 5 wt%.
